In patent publication US11985974B2, “Antimicrobial ferulic acid derivatives and uses thereof” (WISCONSIN ALUMNI RESEARCH FOUNDATION, priority 2014, dated 2024):
Several values for one entry are separate records, joined by “and”; a condition that tells them apart may be missing. Identical values can stand only once. Entries after “also recorded” stand apart in the source; their conditions may differ.

Experiments:
Saccharomyces cerevisiae = experiment: Growth inhibition of S. cerevisiae control strain by diferulates; assay type: cell-based; details: for bioactivity against S. cerevisiae: 1 mg/mL
Protocol: (§1) The diferulate compounds tested were synthesized as described by Lu et al. (2012) and resuspended in DMSO. Caspofungin, nikkomycin Z, and MMS were purchased from Sigma-Aldrich. Echinocandin B was a gift from O. Kondo (Chugai Pharmaceuticals, Tokyo, Japan). Micafungin was provided by Astellas Pharma. Diferulates were initially screened at a concentration of 1 mg/mL to determine bioactivity. Cells of Saccharomyces cerevisiae (MATα pdr1Δ::natMX pdr3Δ::KLURA3 snq2Δ::KI.LEU2 can1Δ::STE2pr-Sp_his5 lyp1Δ his3Δ1 leu2Δ0 ura3Δ0 met15Δ0), referred to as the control strain, were grown in 200-μL cultures at 30° C. in YPD with a drug or DMSO control. Plates were read on a TECAN M1000 over a 48-h growth period. The specific growth rate was calculated using GCAT analysis software (https://gcat3-pub.glbrc.org/) (Sato et al. 2014). When presented, IC50 values for growth rate inhibition were calculated from triplicate eight-point dose curves and SigmaPlot 12.0. When presented, error bars are means±SEs of at least three replicates.

[1] = system: Alternaria solani (field isolate); experiment: Colony growth of A. solani on plates; assay type: cell-based; details: 0, 500, 1,000, 1,500 μg/mL, dose-dependent
Protocol: (§2) To test inhibition in liquid culture, a dose curve of 0, 125, 250, and 500 μg/mL poacic acid in 100 mL potato dextrose broth (n=3) was used. Cultures of S. sclerotiorum strain 1980 were inoculated with 100 μL homogenized mycelia and grown at 25° C. for 48 h. The mycelia in the liquid media were dried and weighed. The growth inhibition of poacic acid on solid agar cultures (potato dextrose agar) was assessed by generating replicate plates (n=3) containing 0, 125, 250, and 500 μg/mL poacic acid. Plates were inoculated with an actively growing plug of S. sclerotiorum and grown at 25° C. The mycelial radial growth after 48 h was measured Inhibition of S. sclerotiorum in planta was tested by inoculating detached soybean leaves of the commercial variety Williams 82 with an agar plug of actively growing S. sclerotiorum mycelia. Leaves were treated one time before inoculation with either an aerosol spray of water with DMSO (control) or a 500 μg/mL solution of poacic acid. Leaves were incubated in a moist environment, and lesion development was monitored up to 120 h postinoculation. […] The growth inhibition of poacic acid was assessed at 0, 500, 1,000, and 1,500 μg/mL in replicate plates (n=3). […] Colony diameter was monitored for each treatment in a time-course experiment. […]

yeast cells (his3Δ) = experiment: Mannoprotein and glucan staining (aniline blue, Con A); assay type: cell-based, Saccharomyces cerevisiae; details: 125 μg/mL, 6 h
Protocol: (§3) β-1,3-Glucan was stained with aniline blue (016-21302; Wako Chemicals) as described previously (Watanabe et al. 2001) with slight modification. Briefly, log-phase yeast cells (his3Δ) were cultured in YPD with poacic acid (125 μg/mL) at 25° C. Then, cells were collected at 0, 2, 4, and 6 h after treatment and stained with aniline blue without fixation as described previously (Okada et al. 2015). Cells mounted on a glass slide were exposed to UV for 30 s to bleach out poacic acid fluorescence before acquiring images. Staining of chitin or mannoproteins with calcofluor white (F3543; Sigma-Aldrich) or Alexa594-ConA (C11253; Life Technologies), respectively, was performed as described previously (Okada et al. 2015). For cell-free glucan staining, yeast glucan (G0331; Tokyo Chemical Industry) was suspended to 0.125% (wt/vol) poacic acid and observed under a fluorescent microscope using a regular DAPI filter set (Carl Zeiss).

P. sojae (field isolate) = experiment: Colony growth of P. sojae on plates; assay type: cell-based, Phytophthora sojae; details: 0, 500, 1,000, 1,500 μg/mL, 7 d, P<0.01
Protocol: as §2

[2] = Cell-free glucan staining (binding to purified yeast glucan); details: 0.125% (wt/vol) poacic acid, fluorescence
Protocol: as §3

[3] = system: S. sclerotiorum strain 1980; experiment: Growth inhibition of S. sclerotiorum in liquid and agar culture; assay type: cell-based, Sclerotinia sclerotiorum; details: 0, 125, 250, 500 μg/mL, 48 h, P<0.01
Protocol: as §2

β-1,3-glucan synthesis = experiment: In vivo β-1,3-glucan synthesis (14C-glucose incorporation); assay type: cell-based, Saccharomyces cerevisiae; details: 250 μg/mL, 2 h, 25° C.
Protocol: Inhibition of in vivo β-1,3-glucan synthesis was measured as described previously with slight modification (n=3) (Abe et al. 2003). Yeast cells (his3Δ) were grown in YPD to early log phase at 25° C. The cultured cells were diluted to 1×10^7 cells per 1 mL with 1 mL of YPD medium containing one-tenth the glucose containing 23.125 kBq [14C] glucose (ARC0122; American Radiolabeled Chemicals) and test compounds [250 μg/mL for poacic acid, 4 μg/mL for echinocandin B, 30 mM for hydroxyurea (negative control), or 0.4% (vol/vol) DMSO as a solvent control]. The cells were radiolabeled by culturing at 25° C. for 2 h. The labeled cells were harvested and incubated with 1 N NaOH at 80° C. for 30 min. The insoluble pellets were resuspended in 10 mM Tris·HCl, pH 7.5, containing 5 mg/mL zymolyase 100T (Seikagaku) and incubated at 37° C. for 18 h. […] The flow-through fraction was mixed with scintillation mixture (Ultima Gold; PerkinElmer), and radioactivity was measured by a scintillation counter (LSC-6100; Aloka). The differences in the incorporation rates in samples were normalized by ΔOD600 measured before and after the labeling period.

bck1Δ mutant = experiment: Sensitivity of individual bck1Δ mutant; assay type: cell-based, Saccharomyces cerevisiae; details: bck1Δ mutant vs control strain
Protocol: as §1

## COc1cc(/C=C/c2cc(/C=C/C(=O)O)cc(OC)c2O)ccc1O [poacic acid, (E)-4-Hydroxy-3-{2-[(E)-4-hydroxy-3-methoxystyryl]}-5-methoxycinnamic acid]
Saccharomyces cerevisiae
  bioactivity against S. cerevisiae: greatest antifungal activity
Saccharomyces cerevisiae; listed as Poacic acid
  bioactivity against S. cerevisiae: highest bioactivity
Saccharomyces cerevisiae; Saccharomyces cerevisiae, read-out: IC50 (growth rate inhibition)
  IC50: 111 µg/mL and 324 µM
[1]
  colony growth on plates: significantly (P<0.01) inhibited
Yeast cells (his3Δ)
  glucan staining with aniline blue in buds: significantly decreased glucan staining in buds
  mannoprotein staining with Con A: does not change mannoprotein staining
P. sojae (field isolate)
  colony growth: significantly reduces colony growth
[2]
  binding to purified yeast glucan: directly binds β-1,3-glucan
[3]
  colony radial growth on agar plates: dose-dependent decrease
  fungal mass (mycelia weight) in liquid culture: dose-dependent decrease
β-1,3-glucan synthesis
  14C-glucose incorporation into the β-1,3-glucan layer: significantly less 14C-glucose incorporation
bck1Δ mutant
  reduction in the IC50 compared with the control strain (WT): six-fold reduction; also recorded: six-fold more sensitive
